Reference: ChEMBL document CHEMBL3885861, “Open TG-GATES”

Species on record: Rattus norvegicus
Experiment: Open TG-GATES - Regimen: Daily Repeat
Type: toxicity, organism-based, Sprague-Dawley
Design: regimen Daily Repeat, gender Male, age 6 weeks
Details: in vivo, po, 500 mg/kg, route gavage, dose level High; for APTT / Bas / Eos / Fbg / Hb / Ht / Lym / MCH / MCHC / MCV / Mono / Neu / PT / Plat / RBC / Ret / WBC: tissue Blood; for KIDNEY_L / KIDNEY_R / KIDNEY_TOTAL: tissue Kidney; for LIVER: tissue Liver; for A/G / ALP / ALT / AST / BUN / CRE / Ca / Cl / DBIL / GLC / IP / K / LDH / Na / PL / RALB / TBIL / TC / TG / TP / gamma-GTP: tissue Plasma

`CC(=O)Oc1cc(C(C)C)c(OCCN(C)C)cc1C` [MOXISYLYTE] showed a TERMINAL_BW (72 h, time 3 day) of 224 g, an APTT (72 h, time 3 day) of 20.8 s and a Bas (72 h, time 3 day) of 0%. The Eos (72 h, time 3 day) was 1%, the Fbg (72 h, time 3 day) was 325 mg/dL and the Hb (72 h, time 3 day) was 14.2 g/dL. For the same compound, the Ht (72 h, time 3 day) was 40.8%, the Lym (72 h, time 3 day) was 76% and the MCH (72 h, time 3 day) was 21.2 pg. For the same compound, the MCHC (72 h, time 3 day) was 34.8%, the MCV (72 h, time 3 day) was 61 fL and the Mono (72 h, time 3 day) was 2.8%. The Neu (72 h, time 3 day) was 20%, the PT (72 h, time 3 day) was 15.7 s and the Plat (72 h, time 3 day) was 118.1 x10_4/uL. For the same compound, the RBC (72 h, time 3 day) was 669.4 x10_4/ul, the Ret (72 h, time 3 day) was 6.3% and the WBC (72 h, time 3 day) was 95.6 x10_2/uL. The KIDNEY_L (72 h, time 3 day) was 1 g, the KIDNEY_R (72 h, time 3 day) was 1 g and the KIDNEY_TOTAL (72 h, time 3 day) was 2 g. For the same compound, the LIVER (72 h, time 3 day) was 10.7 g, the A/G (72 h, time 3 day) was 1.3 and the ALP (72 h, time 3 day) was 1492.8 IU/L. It also gave an ALT (72 h, time 3 day) of 46.6 IU/L, an AST (72 h, time 3 day) of 77.6 IU/L and a BUN (72 h, time 3 day) of 17.6 mg/dL. The CRE (72 h, time 3 day) was 0.2 mg/dL, the Ca (72 h, time 3 day) was 10.9 mg/dL and the Cl (72 h, time 3 day) was 106.4 meq/L. The DBIL (72 h, time 3 day) was 0.004 mg/dL, the GLC (72 h, time 3 day) was 176.4 mg/dL and the IP (72 h, time 3 day) was 7.6 mg/dL. It also gave a K (72 h, time 3 day) of 4.4 meq/L, an LDH (72 h, time 3 day) of 244.2 IU/L and a Na (72 h, time 3 day) of 142.6 meq/L. The PL (72 h, time 3 day) was 177.6 mg/dL, the RALB (72 h, time 3 day) was 3.2 g/dL and the TBIL (72 h, time 3 day) was 0.012 mg/dL. It also gave a TC (72 h, time 3 day) of 92.2 mg/dL, a TG (72 h, time 3 day) of 118.6 mg/dL and a TP (72 h, time 3 day) of 5.8 g/dL. It also gave a gamma-GTP (72 h, time 3 day) of 1.2 IU/L, a TERMINAL_BW ([…], time 7 day) of 243.1 g and a TERMINAL_BW ([…], time 14 day) of 311.5 g. For the same compound, the TERMINAL_BW ([…], time 28 day) was 377.7 g, the APTT ([…], time 7 day) was 21.5 s and the Bas ([…], time 7 day) was 0%. The Eos ([…], time 7 day) was 0.8%, the Fbg ([…], time 7 day) was 317.8 mg/dL and the Hb ([…], time 7 day) was 13.6 g/dL. The Ht ([…], time 7 day) was 38.5%, the Lym ([…], time 7 day) was 76.6% and the MCH ([…], time 7 day) was 21 pg. For the same compound, the MCHC ([…], time 7 day) was 35.3%, the MCV ([…], time 7 day) was 59.4 fL and the Mono ([…], time 7 day) was 2.4%. For the same compound, the Neu ([…], time 7 day) was 19.6%, the PT ([…], time 7 day) was 15.4 s and the Plat ([…], time 7 day) was 118.7 x10_4/uL. The RBC ([…], time 7 day) was 649.6 x10_4/ul, the Ret ([…], time 7 day) was 4.8% and the WBC ([…], time 7 day) was 113.3 x10_2/uL. For the same compound, the APTT ([…], time 14 day) was 22.2 s, the Bas ([…], time 14 day) was 0% and the Eos ([…], time 14 day) was 1%. The Fbg ([…], time 14 day) was 314.8 mg/dL, the Hb ([…], time 14 day) was 14.6 g/dL and the Ht ([…], time 14 day) was 39.8%. For the same compound, the Lym ([…], time 14 day) was 74.4%, the MCH ([…], time 14 day) was 21.2 pg and the MCHC ([…], time 14 day) was 36.7%. The MCV ([…], time 14 day) was 57.9 fL, the Mono ([…], time 14 day) was 2.2% and the Neu ([…], time 14 day) was 21.6%. It also gave a PT ([…], time 14 day) of 15.8 s, a Plat ([…], time 14 day) of 122.7 x10_4/uL and an RBC ([…], time 14 day) of 688.2 x10_4/ul. It also gave a Ret ([…], time 14 day) of 5%, a WBC ([…], time 14 day) of 116.2 x10_2/uL and an APTT ([…], time 28 day) of 21.9 s. For the same compound, the Bas ([…], time 28 day) was 0%, the Eos ([…], time 28 day) was 1.2% and the Fbg ([…], time 28 day) was 311 mg/dL. For the same compound, the Hb ([…], time 28 day) was 15 g/dL, the Ht ([…], time 28 day) was 42.8% and the Lym ([…], time 28 day) was 79.2%. The MCH ([…], time 28 day) was 18.7 pg, the MCHC ([…], time 28 day) was 35.1% and the MCV ([…], time 28 day) was 53.3 fL. For the same compound, the Mono ([…], time 28 day) was 1.6%, the Neu ([…], time 28 day) was 17.4% and the PT ([…], time 28 day) was 15.3 s. It also gave a Plat ([…], time 28 day) of 105.2 x10_4/uL, an RBC ([…], time 28 day) of 802.6 x10_4/ul and a Ret ([…], time 28 day) of 2.9%. The WBC ([…], time 28 day) was 118.3 x10_2/uL, the KIDNEY_L ([…], time 7 day) was 1.1 g and the KIDNEY_R ([…], time 7 day) was 1.1 g. For the same compound, the KIDNEY_TOTAL ([…], time 7 day) was 2.1 g, the KIDNEY_L ([…], time 14 day) was 1.2 g and the KIDNEY_R ([…], time 14 day) was 1.3 g. It also gave a KIDNEY_TOTAL ([…], time 14 day) of 2.5 g, a KIDNEY_L ([…], time 28 day) of 1.4 g and a KIDNEY_R ([…], time 28 day) of 1.4 g. For the same compound, the KIDNEY_TOTAL ([…], time 28 day) was 2.8 g, the LIVER ([…], time 7 day) was 11.2 g and the LIVER ([…], time 14 day) was 14.8 g. The LIVER ([…], time 28 day) was 15.5 g, the A/G ([…], time 7 day) was 1.3 and the ALP ([…], time 7 day) was 1348.8 IU/L. It also gave an ALT ([…], time 7 day) of 46.2 IU/L, an AST ([…], time 7 day) of 74.8 IU/L and a BUN ([…], time 7 day) of 19 mg/dL. It also gave a CRE ([…], time 7 day) of 0.2 mg/dL, a Ca ([…], time 7 day) of 10.6 mg/dL and a Cl ([…], time 7 day) of 105.8 meq/L. For the same compound, the DBIL ([…], time 7 day) was 0 mg/dL, the GLC ([…], time 7 day) was 168.8 mg/dL and the IP ([…], time 7 day) was 6.7 mg/dL. For the same compound, the K ([…], time 7 day) was 4.1 meq/L, the LDH ([…], time 7 day) was 205.6 IU/L and the Na ([…], time 7 day) was 141.6 meq/L. For the same compound, the PL ([…], time 7 day) was 169.8 mg/dL, the RALB ([…], time 7 day) was 3.1 g/dL and the TBIL ([…], time 7 day) was 0.012 mg/dL. It also gave a TC ([…], time 7 day) of 86.4 mg/dL, a TG ([…], time 7 day) of 120.8 mg/dL and a TP ([…], time 7 day) of 5.5 g/dL. The gamma-GTP ([…], time 7 day) was 1.4 IU/L, the A/G ([…], time 14 day) was 1.2 and the ALP ([…], time 14 day) was 1394 IU/L. The ALT ([…], time 14 day) was 43.6 IU/L, the AST ([…], time 14 day) was 69.2 IU/L and the BUN ([…], time 14 day) was 17.4 mg/dL. It also gave a CRE ([…], time 14 day) of 0.2 mg/dL, a Ca ([…], time 14 day) of 10.6 mg/dL and a Cl ([…], time 14 day) of 104.6 meq/L. The DBIL ([…], time 14 day) was 0 mg/dL, the GLC ([…], time 14 day) was 179.4 mg/dL and the IP ([…], time 14 day) was 6.7 mg/dL. The K ([…], time 14 day) was 3.7 meq/L, the LDH ([…], time 14 day) was 123.6 IU/L and the Na ([…], time 14 day) was 141.4 meq/L. It also gave a PL ([…], time 14 day) of 171 mg/dL, an RALB ([…], time 14 day) of 3.2 g/dL and a TBIL ([…], time 14 day) of 0.006 mg/dL. It also gave a TC ([…], time 14 day) of 83.2 mg/dL, a TG ([…], time 14 day) of 190 mg/dL and a TP ([…], time 14 day) of 5.8 g/dL. For the same compound, the gamma-GTP ([…], time 14 day) was 1 IU/L, the A/G ([…], time 28 day) was 1.1 and the ALP ([…], time 28 day) was 1129.4 IU/L. For the same compound, the ALT ([…], time 28 day) was 47.6 IU/L, the AST ([…], time 28 day) was 69.8 IU/L and the BUN ([…], time 28 day) was 17.6 mg/dL. It also gave a CRE ([…], time 28 day) of 0.2 mg/dL, a Ca ([…], time 28 day) of 10.7 mg/dL and a Cl ([…], time 28 day) of 106 meq/L. For the same compound, the DBIL ([…], time 28 day) was 0.004 mg/dL, the GLC ([…], time 28 day) was 189 mg/dL and the IP ([…], time 28 day) was 6.4 mg/dL. It also gave a K ([…], time 28 day) of 4.1 meq/L, an LDH ([…], time 28 day) of 151.2 IU/L and a Na ([…], time 28 day) of 142.2 meq/L. It also gave a PL ([…], time 28 day) of 173.6 mg/dL, an RALB ([…], time 28 day) of 3.2 g/dL and a TBIL ([…], time 28 day) of 0.008 mg/dL. The TC ([…], time 28 day) was 87 mg/dL, the TG ([…], time 28 day) was 152.2 mg/dL and the TP ([…], time 28 day) was 6.2 g/dL. The gamma-GTP ([…], time 28 day) was 2 IU/L.
